Values quoted from earlier work in US8815262B2, “Pharmaceutical composition and preparation for oral administration” (FUJIFILM Corporation, priority 2010, dated 2014).

Conditions: oral administration

bioavailability: ≤ 4%
SMILES: CC(=O)O[C@H]1C(=O)[C@@]2(C)[C@H]([C@H](OC(=O)c3ccccc3)[C@]3(O)C[C@H](OC(=O)[C@H](O)[C@@H](NC(=O)c4ccccc4)c4ccccc4)C(C)=C1C3(C)C)[C@]1(OC(C)=O)CO[C@@H]1C[C@@H]2O [paclitaxel]
